# According to patent US7531507B2, “Acylated nonadepsipeptides containing pyridyl alanine residues” (AiCuris GmbH & Co. KG, priority 2004, dated 2009):
# Structures can show the parent of a compound that is named as a salt. Where two headings read alike, the source gives them in different places. Starred links: 1 amine or outer side, 2 acyl side, 3 side chain; linkers in the order of their positions; H or OH if unused. Positions of bridges follow the written chain, without caps; N, C: chain ends. Non-standard residues stand in square brackets, D forms with d. Residues, ends and D or L forms follow the SMILES beside them. *: point of attachment. X3 = CCC(C)(C)C[C@@H](N)C(=O)N[C@@H](Cc1cccnc1)C(=O)N[C@H](C(N)=O)[C@H](O*)c1ccccc1; Phe(3R-OH) = O=C([C@@H](N[*:1])[C@H](O[*:3])c1ccccc1)[*:2]; Asn(3S-OH) = NC(=O)[C@@H](O)[C@H](N)C(=O)O; Leu(3R-OH) = CC(C)[C@@H](O)[C@H](N)C(=O)O; dAla(TMS) = C[Si](C)(C)C[C@@H](N)C(=O)O; X1 = CC(C)[C@@H](O)[C@H](C)C(=O)*; 3Pal = N[C@@H](Cc1cccnc1)C(=O)O; aThr = C[C@H](O)[C@H](N)C(=O)O
# How the values were obtained:
# [1] = test system: Streptococcus pneumoniae G9a; format: cell-based
# Procedure: (§1) Determination of the Minimum Inhibitory Concentration (MIC):
# (§2) The MIC is determined in the liquid dilution test in accordance with the NCCLS guidelines. Overnight cultures of Staphylococcus aureus 133, Enterococcus faecalis 27159, E. faecium 4147 and Streptococcus pneumoniae G9a are incubated with the described test substances in a 1:2 dilution series. The MIC determination is carried out with a cell count of 10^5 microbes per ml in Isosensitest medium (Difco, Irvine/USA), with the exception of S. pneumoniae which is tested in BHI broth (Difco, Irvine/USA) with 10% bovine serum with a cell count of 10^6 microbes per ml. The cultures are incubated at 37° C. for 18-24 hours, S. pneumoniae in the presence of 10% CO2.
# (§3) The MIC is defined as the lowest concentration of each substance at which visible bacterial growth no longer occurs. The MIC values are reported in μg/ml.
# [2] = test system: Staphylococcus aureus 133; format: cell-based
# Procedure: as §1, §2, §3
# [3] = Determination of the free fraction (fu) in plasma via Transil or ultrafiltration; format: in vitro ADME, rat
# Procedure: Principle of the Determination of the Free Fraction via Transil:
# The method described herein for determining the free fraction (fu) of a test substance is divided into 2 parts:
# a) Determination of the Transil®/buffer partitioning ratio (MAbuffer) by incubating the test substance in a Transil® buffer (pH 7.4) dispersion and subsequently determining the concentration in the dispersion and in the buffer supernatant.
# b) Determination of the Transil®/plasma partitioning ratio (MAplasma) by incubating the test substance in a Transil® plasma dispersion and subsequently determining the concentration in the dispersion and in the plasma.
# The quotient of the two partitioning ratios gives fu.
# Where substances are highly protein-bound, the plasma is usually diluted with isotonic phosphate buffer (pH 7.4) and then suspended with Transil®. Determination of fu′ (free fraction in diluted plasma) in this diluted protein solution takes place in analogy to the determination of fu. The free fraction in undiluted plasma is calculated from fu′ and the dilution factor.
# Concerning this method, compare also: Schuhmacher, Joachim; Kohlsdorfer, Christian; Buehner, Klaus; Brandenburger, Tim; Kruk, Renate, “High-throughput determination of the free fraction of drugs strongly bound to plasma proteins.” Journal of Pharmaceutical Sciences 2004, 93, 816-830.
# Determination of the Membrane Affinity of a Test Substance After Partitioning Between Transil® and Buffer (MAbuffer):
# All incubations are carried out in suitable glass vessels, e.g. glass vials, ground-joint test tubes. The total volume is usually 0.5-5 ml, and the Transil® volume is 10-100 μl. If the membrane affinities are expected to be high, the Transil® dispersion can be diluted up to 20 times with phosphate buffer of pH 7.4, e.g. Dulbecco's PBS. Phosphate buffer of pH 7.4 is introduced into the incubation vessels, and the Transil® is pipetted in after thorough mixing. The test substance is pipetted in at a concentration of, for example, 200 ng/ml, n=6. The proportion of organic solvents should be ≦2%. The mixtures are incubated at room temperature i.e. on a mini-shaker at an angle of about 45°, at about 400 rpm for 30 min. The 100% value is determined by taking at least one aliquot of, for example, 100 μl, and the remaining mixture is centrifuged at about 1800 g for about 10 min. […]
# The plasma of the species to be investigated is filtered through a semipermeable membrane. The concentration of substance in the filtrate is measured, and the free fraction fU is calculated therefrom. […] The concentration of substance in the ultrafiltrate (Cu, unbound substance concentration) and in the plasma before centrifugation (C; total substance concentration) is measured. The free fraction is calculated by the formula fu (%)=Cu/C*100.
# E. faecium L4001 = format: cell-based, Enterococcus faecium; conditions: Isosensitest medium, 10^5 microbes per ml, 37° C., 18-24 hours
# E. faecalis ICB 27159 = format: cell-based, Enterococcus faecalis
# Procedure: as §1, §2, §3
# [4] = BHI broth with 10% bovine serum, 10^6 microbes per ml, 37° C., 18-24 hours, 10% CO2
# [5] = Isosensitest medium, 10^5 microbes per ml, 37° C., 18-24 hours
# [6] = free fraction in rat plasma, read-out: fu (rat)
# [7] = Isosensitest medium, 10^5 microbes per ml, 37° C., 18-24 hours, trishydrochloride
smiles,measurement,setting,value
"CC[C@H](C)[C@@H]1NC(=O)[C@@H](CCCNC(=N)N)NC(=O)[C@H](CC(C)C)NC(=O)[C@H]([C@H](O)C(C)C)NC(=O)[C@@H](NC(=O)[C@H](CC(C)C)NC(=O)[C@H](N)CC(C)C)[C@@H](c2ccccc2)OC(=O)[C@H](CO)NC(=O)[C@H]([C@H](O)C(N)=O)NC(=O)CNC(=O)[C@H]([C@H](C)O)NC1=O [Example 1A, D-Leucyl-N^1-4-{(3S,6S,12S,15S,18R,21S,24S,27S,28R)-6-[(1S)-2-amino-1-hydroxy-2-oxoethyl]-18-(3-{[amino(imino)methyl]amino}propyl)-12-[(1S)-1-hydroxyethyl]-3-(hydroxymethyl)-24-[(1R)-1-hydroxy-2-methylpropyl]-21-isobutyl-15-[(1S)-1-methylpropyl]-2,5,8,11,14,17,20,23,26-nonaoxo-28-phenyl-1-oxa-4,7,10,13,16,19,22,25-octaazacyclooctacosan-27-yl}-L-leucinamide bistrifluoroacetate (lysobactin), reference compound] (H-[dL]L[Phe(3R-OH)][Leu(3R-OH)]L[dR]I[aThr]G[Asn(3S-OH)]S; ester 3-C)",MIC S. pneumoniae G9a,[1]; [4],0.063 µg/mL
same,MIC S. aureus 133,[2]; [5],0.5 µg/mL
same,fraction unbound at 30 min,[3]; [6],0.0067
same,MIC E. faecium L4001,E. faecium L4001,0.5 µg/mL
same,MIC E. faecalis ICB 27159,E. faecalis ICB 27159; [5],0.5 µg/mL
"CC[C@H](C)[C@@H]1NC(=O)[C@@H](CCCNC(=N)N)NC(=O)[C@H](CC(C)C)NC(=O)[C@H]([C@H](O)C(C)C)NC(=O)[C@@H](NC(=O)[C@H](Cc2cccnc2)NC(=O)[C@H](N)C[Si](C)(C)C)[C@@H](c2ccccc2)OC(=O)[C@H](CO)NC(=O)[C@H]([C@H](O)C(N)=O)NC(=O)CNC(=O)[C@H]([C@H](C)O)NC1=O [Example 2, 3-(Trimethylsilyl)-D-alanyl-3-(pyridin-3-yl)-L-alanyl-de(1-D-leucyl-2-L-leucyl)-lysobactin tristrifluoroacetate] (H-[dAla(TMS)][3Pal][Phe(3R-OH)][Leu(3R-OH)]L[dR]I[aThr]G[Asn(3S-OH)]S; ester 3-C)",MIC S. pneumoniae G9a,[1]; [4],0.125 µg/mL
same,MIC S. aureus 133,[2]; [5],0.125 µg/mL
same,fraction unbound at 30 min,[3]; [6],0.123
same,MIC E. faecium L4001,E. faecium L4001,1 µg/mL
same,MIC E. faecalis ICB 27159,E. faecalis ICB 27159; [5],0.5 µg/mL
"CC[C@H](C)[C@@H]1NC(=O)[C@@H](CCCNC(=N)N)NC(=O)[C@H](CC(C)C)NC(=O)[C@H]([C@H](O)C(C)C)NC(=O)[C@@H](NC(=O)[C@H](Cc2cccnc2)NC(=O)[C@H](N)C[Si](C)(C)C)[C@@H](c2ccccc2)OC(=O)[C@H](CO)NC(=O)[C@H]([C@H](O)C(N)=O)NC(=O)CNC(=O)[C@H]([C@H](C)O)NC1=O [Example 3, 3-(Trimethylsilyl)-D-alanyl-3-(pyridin-3-yl)-L-alanyl-de(1-D-leucyl-2-L-leucyl)-lysobactin trismethanesulphonate] (H-[dAla(TMS)][3Pal][Phe(3R-OH)][Leu(3R-OH)]L[dR]I[aThr]G[Asn(3S-OH)]S; ester 3-C)",MIC S. aureus 133,[2]; [5],0.5 µg/mL
"CC[C@H](C)[C@H](NC(=O)[C@@H](CCCNC(=N)N)NC(=O)[C@H](CC(C)C)NC(=O)[C@@H](C)[C@H](O)C(C)C)C(=O)N[C@H](C(=O)NCC(=O)N[C@H](C(=O)N[C@@H](CO)C(=O)O[C@H](c1ccccc1)[C@H](NC(=O)[C@H](Cc1cccnc1)NC(=O)[C@H](N)CC(C)(C)CC)C(N)=O)[C@H](O)C(N)=O)[C@H](C)O.O=C(O)C(F)(F)F.O=C(O)C(F)(F)F.O=C(O)C(F)(F)F [Example 4, 4,4-Dimethyl-D-norleucyl-3-(pyridin-3-yl)-L-alanyl-de(1-D-leucyl-2-L-leucyl)lysobactin tristrifluoroacetate] (X1-L[dR]I[aThr]G[Asn(3S-OH)]S-X3)",MIC S. pneumoniae G9a,[1]; G9a,0.125 µg/mL
same,MIC S. aureus 133,[2]; 133,0.25 µg/mL
same,fraction unbound at 30 min,"[3]; rat, plasma",0.061
same,MIC E. faecalis ICB 27159,E. faecalis ICB 27159; ICB 27159,1 µg/mL
"CC[C@H](C)[C@@H]1NC(=O)[C@@H](CCCNC(=N)N)NC(=O)[C@H](CC(C)C)NC(=O)[C@H]([C@H](O)C(C)C)NC(=O)[C@@H](NC(=O)[C@H](Cc2cccnc2)NC(=O)[C@H](N)C[Si](C)(C)C)[C@@H](c2ccccc2)OC(=O)[C@H](CO)NC(=O)[C@H]([C@H](O)C(N)=O)NC(=O)CNC(=O)[C@H]([C@H](C)O)NC1=O [Example 6, (Trimethylsilyl)-D-alanyl-3-(pyridin-3-yl)-L-alanyl-de(1-D-leucyl-2-L-leucyl)lysobactin trishydrochloride] (H-[dAla(TMS)][3Pal][Phe(3R-OH)][Leu(3R-OH)]L[dR]I[aThr]G[Asn(3S-OH)]S; ester 3-C)",MIC S. pneumoniae G9a,"[1]; BHI broth with 10% bovine serum, 10^6 microbes per ml, 37° C., 18-24 hours, 10% CO2, trishydrochloride",<0.063 µg/mL
same,MIC S. aureus 133,[2]; [7],<0.063 µg/mL
same,MIC E. faecalis ICB 27159,E. faecalis ICB 27159; [7],1 µg/mL
"CC[C@H](C)[C@@H]1NC(=O)[C@@H](CCCNC(=N)N)NC(=O)[C@H](CC(C)C)NC(=O)[C@H]([C@H](O)C(C)C)NC(=O)[C@@H](NC(=O)[C@H](Cc2cccnc2)NC(=O)[C@H](N)C[Si](C)(C)C)[C@@H](c2ccccc2)OC(=O)[C@H](CO)NC(=O)[C@H]([C@H](O)C(N)=O)NC(=O)CNC(=O)[C@H]([C@H](C)O)NC1=O [Example 7, (Trimethylsilyl)-D-alanyl-3-(pyridin-3-yl)-L-alanyl-de(1-D-leucyl-2-L-leucyl)lysobactin tris-L-lactate] (H-[dAla(TMS)][3Pal][Phe(3R-OH)][Leu(3R-OH)]L[dR]I[aThr]G[Asn(3S-OH)]S; ester 3-C)",MIC S. aureus 133,[2]; [5],0.063 µg/mL
same,MIC E. faecalis ICB 27159,E. faecalis ICB 27159; [5],1 µg/mL
"CC[C@H](C)[C@@H]1NC(=O)[C@@H](CCCNC(=N)N)NC(=O)[C@H](CC(C)C)NC(=O)[C@H]([C@H](O)C(C)C)NC(=O)[C@@H](NC(=O)[C@H](Cc2cccnc2)NC(=O)[C@H](N)C[Si](C)(C)C)[C@@H](c2ccccc2)OC(=O)[C@H](CO)NC(=O)[C@H]([C@H](O)C(N)=O)NC(=O)CNC(=O)[C@H]([C@H](C)O)NC1=O [Example 8, (Trimethylsilyl)-D-alanyl-3-(pyridin-3-yl)-L-alanyl-de(1-D-leucyl-2-L-leucyl)lysobactin tris-D-tartrate] (H-[dAla(TMS)][3Pal][Phe(3R-OH)][Leu(3R-OH)]L[dR]I[aThr]G[Asn(3S-OH)]S; ester 3-C)",MIC S. aureus 133,[2]; [5],0.25 µg/mL
same,MIC E. faecalis ICB 27159,E. faecalis ICB 27159; [5],2 µg/mL
